Experimental data reported in ChEMBL document CHEMBL5505960, “Synthesis and evaluation of butylphthalide-scutellarein hybrids as multifunctional agents for the treatment of Alzheimer's disease” (Eur J Med Chem, 2024).
The source made the active and inactive calls. No cut-off for these calls is given here.

Experiments:
[1] = Antioxidant activity assessed as inhibition of Cu2+-induced ROS production by measuring decrease in fluorescence intensity in presence of Cu2+ and ascorbate; type: functional
HT-22 [2] = assay: Neuroprotective activity against amyloid beta (1 to 42) induced cell injury in mouse HT-22 cells assessed as cell viability at 50 uM incubated for 24 hrs by MTT assay; type: functional, cell-based
HT-22 [3] = assay: Neuroprotective activity against amyloid beta (1 to 42)-induced injury in mouse HT-22 cells assessed as reversal of reduced cell synapse length at 2.5 to 10 uM measured after 24 hrs […]; type: functional, cell-based; details: dose 2.5-10 µM
HT-22 [4] = assay: Neuroprotective activity against amyloid beta (1 to 42)-induced injury in mouse HT-22 cells assessed as increase in cell viability at 10 uM incubated for 24 hrs by MTT assay relative to control; type: functional
PC-12 [5] = assay: Neuroprotective activity against H2O2 induced rat PC12 cells assessed as increase in cell viability at 10 uM measured after 24 hrs by MTT assay relative to control; type: functional
PC-12 [6] = assay: Neuroprotective activity against H2O2 induced rat PC12 cells assessed as increase in cell viability at 25 uM measured after 24 hrs by MTT assay relative to control; type: functional
BV-2 [7] = assay: Cytotoxicity against mouse BV-2 cells at upto 10 uM measured after 24 hrs by MTT assay; type: toxicity, cell-based; details: bv-2, 24 h
BV-2 [8] = assay: Cytotoxicity against LPS-induced mouse BV-2 cells assessed as cell viability at 0.5 to 10 uM incubated for 24 hrs by MTT assay; type: toxicity, cell-based; details: bv-2, 24 h, dose 0.5-10 µM
BV-2 [9] = assay: Antineuroinflammatory activity in LPS-induced mouse BV-2 cells assessed as inhibition of NO release at 0.5 uM preincubated for 30 mins followed by LPS stimulation and measured after 24 hrs relative to control; type: functional; parameters: scale not given: the % may be the effect or the level left; details: time 24.5 hrs
BV-2 [10] = assay: Antineuroinflammatory activity in LPS-induced mouse BV-2 cells assessed as inhibition of TNF-alpha release at 10 uM preincubated for 30 mins followed by LPS stimulation and measured after 24 hrs relative to control; type: functional; parameters: scale not given: the % may be the effect or the level left; details: time 24.5 hrs
BV-2 [11] = assay: Antineuroinflammatory activity in LPS-induced mouse BV-2 cells assessed as inhibition of IL-1 beta release at 2.5 uM preincubated for 30 mins followed by LPS stimulation and measured after 24 hrs relative to control; type: functional; parameters: scale not given: the % may be the effect or the level left; details: time 24.5 hrs
BV-2 [12] = assay: Antineuroinflammatory activity in LPS-induced mouse BV-2 cells assessed as inhibition of IL-1 beta release preincubated for 30 mins followed by LPS stimulation and measured after 24 hrs; type: functional, cell-based; details: dose 0.5-10 µM, time 24.5 hrs
[13] = Tmax in Balb/C mouse plasma at 30 mg/kg, IG measured upto 8 hrs by LC-MS analysis; type: ADME, organism-based; details: po
[14] = Cmax in Balb/C mouse plasma at 30 mg/kg, IG measured upto 8 hrs by LC-MS analysis; type: ADME, organism-based; details: po
[15] = Half life in Balb/C mouse brain at 30 mg/kg, IG measured upto 8 hrs by LC-MS analysis; type: ADME, organism-based; details: po
[16] = Tmax in Balb/C mouse brain at 30 mg/kg, IG measured upto 8 hrs by LC-MS analysis; type: ADME, organism-based; details: po
[17] = Cmax in Balb/C mouse brain at 30 mg/kg, IG measured upto 8 hrs by LC-MS analysis; type: ADME, organism-based; details: po
Mus musculus [18] = assay: Neuroprotective activity in Sodium nitrite induced cognition impairement in C57BL/6 mouse model assessed as reduction in number of error time at 1.1 to 9.9 mg/kg, IG administered daily for 7 days; type: functional, organism-based; details: dose 1.1-9.9 mg/kg, time 7.0 day
Mus musculus [19] = assay: Neuroprotective activity against Abeta42 induced cognition impairement in AD mouse model assessed as improvement in latency time at 1.1 to 9.9 mg/kg, IG administered daily for 7 days by passive avoidance test; type: functional, organism-based; details: dose 1.1-9.9 mg/kg, time 7.0 day
Mus musculus [20] = assay: Neuroprotective activity against Abeta42 induced cognition impairement in AD mouse model assessed as reduction in number of error at 1.1 to 9.9 mg/kg, IG administered daily for 7 days by passive avoidance test; type: functional, organism-based; details: dose 1.1-9.9 mg/kg, time 7.0 day
[21] = biological target: Amyloid-beta precursor protein (Homo sapiens) (UniProt P05067); assay: Inhibition of amyloid beta (1 to 42) (unknown origin) fibrillation assessed as decrease in thickness of amyloid beta fibrils at 25 uM measured after 24 hrs by TEM analysis
[22] = biological target: Amyloid-beta precursor protein (Homo sapiens) (UniProt P05067); assay: Inhibition of amyloid beta (1 to 42) (unknown origin) fibrillation assessed as reduction in Cu2+ induced shorter fibrils at 25 uM measured after 24 hrs by TEM analysis
[23] = biological target: Amyloid-beta precursor protein (Homo sapiens) (UniProt P05067); assay: Inhibition of amyloid beta (1 to 42) (unknown origin) fibrillation assessed as reduction in Cu2+ induced thick fibrils at 25 uM measured after 24 hrs by TEM analysis
[24] = Metal chelating activity assessed as compound-Cu2+ complex formation by measuring bathochromic shift at 301 to 345nm in the presence of CuCl2 by UV-Visible spectrophotometric analysis
[25] = Metal chelating activity assessed as compound-Fe2+ complex formation by measuring bathochromic shift at 301 to 335nm in the presence of FeSO4 by UV-Visible spectrophotometric analysis
[26] = Metal chelating activity assessed as compound-Zn2+ complex formation by measuring bathochromic shift at 301 to 345nm in the presence of ZnCl2 by UV-Visible spectrophotometric analysis
[27] = Metal chelating activity assessed as compound-Al3+ complex formation by measuring bathochromic shift at 301 to 330nm in the presence of AlCl3 by UV-Visible spectrophotometric analysis
[28] = Metal chelating activity assessed as compound-Cu2+ complex formation at stoichiometric ratio of 1:1 in presence of CuCl2 by UV-Vis spectrometry
[29] = Metal chelating activity assessed as compound-Cu2+ complex formation by measuring hyperchromic shift in the presence of CuCl2 by UV-Visible spectrophotometric analysis
[30] = Metal chelating activity assessed as compound-Zn2+ complex formation by measuring hyperchromic shift in the presence of ZnCl2 by UV-Visible spectrophotometric analysis

Amyloid-beta precursor protein (Homo sapiens), sequence (P05067 whole entry): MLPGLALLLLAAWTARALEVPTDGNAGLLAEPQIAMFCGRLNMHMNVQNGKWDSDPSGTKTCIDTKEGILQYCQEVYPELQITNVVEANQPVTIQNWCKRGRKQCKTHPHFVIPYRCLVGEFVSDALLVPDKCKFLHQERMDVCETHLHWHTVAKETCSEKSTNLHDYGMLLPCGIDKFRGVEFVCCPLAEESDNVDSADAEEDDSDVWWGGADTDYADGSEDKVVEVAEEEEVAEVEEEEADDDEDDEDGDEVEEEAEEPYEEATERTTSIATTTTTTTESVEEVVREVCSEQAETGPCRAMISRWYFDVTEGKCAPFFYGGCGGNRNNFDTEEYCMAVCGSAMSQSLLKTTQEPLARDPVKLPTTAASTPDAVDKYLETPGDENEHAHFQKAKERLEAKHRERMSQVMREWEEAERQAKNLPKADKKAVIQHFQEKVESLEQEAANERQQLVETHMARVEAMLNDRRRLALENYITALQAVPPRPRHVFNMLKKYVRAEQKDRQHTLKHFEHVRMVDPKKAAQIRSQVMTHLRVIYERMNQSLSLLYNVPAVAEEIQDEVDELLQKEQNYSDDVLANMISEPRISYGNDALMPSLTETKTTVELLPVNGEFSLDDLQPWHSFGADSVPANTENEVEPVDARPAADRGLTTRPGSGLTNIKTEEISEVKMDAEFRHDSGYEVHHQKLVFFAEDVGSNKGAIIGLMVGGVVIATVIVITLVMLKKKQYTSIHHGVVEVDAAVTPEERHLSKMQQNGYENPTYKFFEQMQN

**Q.** Which results are given for `CCCCCC1OC(=O)c2c1cc(OC)c(O)c2O` (stereo not given)?
**A.** Activity [1]: Active; Activity (HT-22 [2]): Active; Activity (HT-22 [3]): Active; Activity (HT-22 [4]): 89.2%; Activity (PC-12 [5]): 80.7%; Activity (PC-12 [6]): 83.9%; Activity (BV-2 [7]): Non-Toxic; Activity (BV-2 [8]): Non-Toxic; Activity (BV-2 [9]): 31.1%; Activity (BV-2 [10]): 75.8%; Activity (BV-2 [11]): 49.2%; Activity (BV-2 [12]): Dose-Dependent Effect; Tmax [13]: 15 min; Cmax [14]: 879 ng/mL; half-life [15]: 58.2 min; Tmax [16]: 30 min; Cmax [17]: 337 ng/mL; Activity (Mus musculus [18]): Active; Activity (Mus musculus [19]): Active; Activity (Mus musculus [20]): Active; inhibition [21]: Active; inhibition [22]: Active; inhibition [23]: Active; Activity [24]: Active; Activity [25]: Active; Activity [26]: Active; Activity [27]: Active; Activity [28]: Active; Activity [29]: Active; Activity [30]: Active
